# Results as given in patent publication US4248863A, “Antibiotics saframycins A, B, C, D and E and process for producing the same” (priority 1977, dated 1981).
# What was measured:
# Bacillus cereus = assay: Antimicrobial spectrum, MIC (Table 4); format: cell-based; details: Bacillus cereus; 1% glucose nutrient agar, 37° C., 24 or 48 hours; read-out: MIC
# Micrococcus luteus = assay: Antimicrobial spectrum, MIC (Table 4); format: cell-based; details: Micrococcus luteus; 1% glucose nutrient agar, 37° C., 24 or 48 hours; read-out: MIC
# Serratia marcescens = assay: Antimicrobial spectrum, MIC (Table 4); format: cell-based; details: Serratia marcescens; 1% glucose nutrient agar, 37° C., 24 or 48 hours; read-out: MIC
# [1] = system: Streptococcus pyogenes 090R; assay: Antimicrobial spectrum, MIC (Table 4); format: cell-based; details: Streptococcus pyogenes, 090R; blood agar, 37° C., 24 or 48 hours; read-out: MIC
# Salmonella typhimurium = assay: Antimicrobial spectrum, MIC (Table 4); format: cell-based; details: Salmonella enterica, TYPHIMURIUM; 1% glucose nutrient agar, 37° C., 24 or 48 hours; read-out: MIC
# [2] = system: Corynebacterium dephtheriae; assay: Antimicrobial spectrum, MIC (Table 4); format: cell-based; details: Corynebacterium; 1% glucose nutrient agar, 37° C., 24 or 48 hours; read-out: MIC
# Mycobacterium avium = assay: Antimicrobial spectrum, MIC (Table 4); format: cell-based; details: Mycobacterium avium; 3% glycerol nutrient agar for acid-fast bacteria, 37° C., 24 or 48 hours; read-out: MIC
# Streptococcus pyogenes = assay: Antimicrobial spectrum, MIC (Table 4); format: cell-based; details: Streptococcus pyogenes; blood agar, 37° C., 24 or 48 hours; read-out: MIC
# [3] = system: mouse lymphocytic leukemia L1210; assay: Effect on mouse lymphocytic leukemia L1210 in vivo; details: DBF1 mice, 1×10^5 cells intraperitoneal; 1.5 mg/kg daily for 2 days intraperitoneal, started 3 hours after implantation
# Procedure: When DDY mice were implanted with 1×10^5 cells of Ehrlich ascites tumor and daily intraperitoneal treatment of saframycin A at a dose of 0.5 mg/kg was initiated 24 hours after tumor implantation for 4 days, 30% of mice were cured and survived more than 30 days. With a dose of 1.0 mg/kg, 60% of mice was cured. The effects of saframycin A by intraperitoneal treatment on mouse lymphocytic leukemia L1210 and lymphoid leukemia P388 were studied with DBF1 mice. […] With P388 tumor, the inoculum size of 1×10^6 cells was employed and the treatment was initiated after 24 hours. Saframycin A at a daily dose of 0.75 mg/kg for 10 days produced T/C of 219%. The effect of saframycin A was then studied against human tumors, two lines of uterine cervical carcinoma, melanoma, oat cell carcinoma and stomach carcinoma, heterotransplanted to nude mice.
# stomach carcinoma = assay: Effect against human tumors heterotransplanted to nude mice; format: in vivo, human tumor in nude mice; details: human tumor heterotransplanted to nude mice
# Klebsiella pneumoniae = assay: Antimicrobial spectrum, MIC (Table 4); format: cell-based; details: Klebsiella pneumoniae; 1% glucose nutrient agar, 37° C., 24 or 48 hours; read-out: MIC
# [4] = system: Trichophyton mentagrophytes; assay: Antimicrobial spectrum, MIC (Table 4); details: Trichophyton mentagrophytes, 72 h
# Mycobacterium sp. 607 = assay: Antimicrobial spectrum, MIC (Table 4); format: cell-based; details: Mycobacterium, SP.607; 3% glycerol nutrient agar for acid-fast bacteria, 37° C., 24 or 48 hours; read-out: MIC
# Aspergillus niger = assay: Antimicrobial spectrum, MIC (Table 4); details: Aspergillus niger, 48 h
# Rhodotorula glutinis = assay: Antimicrobial spectrum, MIC (Table 4); details: Rhodotorula glutinis, 48 h
# Streptococcus faecalis = assay: Antimicrobial spectrum, MIC (Table 4); format: cell-based; details: Enterococcus faecalis; 1% glucose nutrient agar, 37° C., 24 or 48 hours; read-out: MIC
# Toxicity in mice = details: mouse, in vivo
# Mycobacterium phlei = assay: Antimicrobial spectrum, MIC (Table 4); format: cell-based; details: Mycolicibacterium phlei; 3% glycerol nutrient agar for acid-fast bacteria, 37° C., 24 or 48 hours; read-out: MIC
# Saccharomyces cerevisiae = assay: Antimicrobial spectrum, MIC (Table 4); details: Saccharomyces cerevisiae, 48 h
# Staphylococcus albus = assay: Antimicrobial spectrum, MIC (Table 4); format: cell-based; details: Staphylococcus; 1% glucose nutrient agar, 37° C., 24 or 48 hours; read-out: MIC
# Pseudomonas aeruginosa = assay: Antimicrobial spectrum, MIC (Table 4); format: cell-based; details: Pseudomonas aeruginosa; 1% glucose nutrient agar, 37° C., 24 or 48 hours; read-out: MIC
# Ehrlich ascites tumor = assay: Activity against Ehrlich ascites tumor in DDY mice; format: in vivo; details: 1×10^5 cells, initiated 24 hours after implantation, 4 days
# Brucella abortus = assay: microbe, parasite or virus in culture; format: cell-based; details: Brucella abortus
# [5] = system: Staphylococcus aureus Smith; assay: Antimicrobial spectrum, MIC (Table 4); format: cell-based; details: Staphylococcus aureus; 1% glucose nutrient agar, 37° C., 24 or 48 hours; read-out: MIC
# Candida albicans = assay: Antimicrobial spectrum, MIC (Table 4); details: Candida albicans, 48 h
# [6] = system: Staphylococcus aureus 209P; assay: Antimicrobial spectrum, MIC (Table 4); format: cell-based; details: Staphylococcus aureus, 209P; 1% glucose nutrient agar, 37° C., 24 or 48 hours; read-out: MIC
# [7] = system: Shigella dysenteriae Shiga; assay: microbe, parasite or virus in culture; format: cell-based; details: Shigella dysenteriae
# Escherichia coli = assay: Antimicrobial spectrum, MIC (Table 4); format: cell-based; details: Escherichia coli; 1% glucose nutrient agar, 37° C., 24 or 48 hours; read-out: MIC
# Nocardia asteroides = assay: Antimicrobial spectrum, MIC (Table 4); format: cell-based; details: Nocardia asteroides; 37° C., 24 or 48 hours; read-out: MIC
# Penicillium glaucum = assay: Antimicrobial spectrum, MIC (Table 4); details: Penicillium, 48 h
# Corynebacterium xerosis = assay: Antimicrobial spectrum, MIC (Table 4); format: cell-based; details: Corynebacterium xerosis; 1% glucose nutrient agar, 37° C., 24 or 48 hours; read-out: MIC
# Aspergillus oryzae = assay: Antimicrobial spectrum, MIC (Table 4); details: Aspergillus oryzae, 48 h
# Staphylococcus citreus = assay: Antimicrobial spectrum, MIC (Table 4); format: cell-based; details: Staphylococcus; 1% glucose nutrient agar, 37° C., 24 or 48 hours; read-out: MIC
# Mucor mucedo = assay: Antimicrobial spectrum, MIC (Table 4); details: Mucor mucedo, 48 h
# [8] = system: uterine cervical carcinoma; assay: Effect against human tumors heterotransplanted to nude mice; format: in vivo, human tumor in nude mice; details: human tumor heterotransplanted to nude mice
# Bacillus subtilis = assay: Antimicrobial spectrum, MIC (Table 4); format: cell-based; details: Bacillus subtilis; 1% glucose nutrient agar, 37° C., 24 or 48 hours; read-out: MIC
# [9] = system: Staphylococcus salivarius; assay: Antimicrobial spectrum, MIC (Table 4); format: cell-based; details: Staphylococcus; 1% glucose nutrient agar, 37° C., 24 or 48 hours; read-out: MIC
structure (smiles),measurement,setting,value
COC1=C(C)C(=O)C2=C(C1=O)C1C3CC4=C(C(=O)C(OC)=C(C)C4=O)C(CNC(=O)C(C)=O)N3C(C#N)C(C2)N1C (stereo not drawn) [saframycin A],MIC,Bacillus cereus,12.5 µg/mL
same,MIC,Micrococcus luteus,0.05 µg/mL
same,MIC,Serratia marcescens,> 100 µg/mL
same,MIC,[1],6.25 µg/mL
same,MIC,Salmonella typhimurium,100 µg/mL
same,MIC,[2],< 0.003 µg/mL
same,MIC,Mycobacterium avium,12.5 µg/mL
same,MIC,Streptococcus pyogenes,0.78 µg/mL
same,T/C (survival period of treated group over survival period of control group),[3],183%
same,activity against stomach carcinoma,stomach carcinoma,selectively active on cervical carcinoma and stomach carcinoma producing the inhibition of tumor growth and significant histological changes in tumor tissue
same,MIC,Klebsiella pneumoniae,6.25 µg/mL
same,MIC,[4],> 100 µg/mL
same,MIC,Mycobacterium sp. 607,12.5 µg/mL
same,MIC,Aspergillus niger,> 100 µg/mL
same,MIC,Rhodotorula glutinis,> 100 µg/mL
same,MIC,Streptococcus faecalis,6.25 µg/mL
same,LD50,Toxicity in mice; ip,40 mg/kg
same,LD50,Toxicity in mice; iv,12 mg/kg
same,MIC,Mycobacterium phlei,25 µg/mL
same,MIC,Saccharomyces cerevisiae,> 100 µg/mL
same,MIC,Staphylococcus albus,0.1 µg/mL
same,MIC,Pseudomonas aeruginosa,> 100 µg/mL
same,mice cured and survived more than 30 days,Ehrlich ascites tumor; 0.5 mg/kg daily intraperitoneal,30%
same,mice cured,Ehrlich ascites tumor; 1.0 mg/kg daily intraperitoneal,60%
same,MIC,Brucella abortus,6.25 µg/mL
same,MIC,[5],0.05 µg/mL
same,MIC,Candida albicans,> 100 µg/mL
same,MIC,[6],0.1 µg/mL
same,MIC,[7],25 µg/mL
same,MIC,Escherichia coli,50 µg/mL
same,MIC,Nocardia asteroides,6.25 µg/mL
same,MIC,Penicillium glaucum,50 µg/mL
same,MIC,Corynebacterium xerosis,< 0.003 µg/mL
same,MIC,Aspergillus oryzae,> 100 µg/mL
same,MIC,Staphylococcus citreus,0.1 µg/mL
same,MIC,Mucor mucedo,> 100 µg/mL
same,activity against cervical carcinoma,[8],selectively active on cervical carcinoma and stomach carcinoma producing the inhibition of tumor growth and significant histological changes in tumor tissue
same,MIC,Bacillus subtilis,0.1 µg/mL
same,MIC,[9],6.25 µg/mL
